Assay results published in EP0499662A1, “Compositions with enhanced penetration” (WARNER-LAMBERT COMPANY, priority 1991, dated 1992).

Experiment: in vitro permeation (diffusion) study across hairless mouse skin

**Q.** For `C[C@]12CCC(=O)C=C1CC[C@@H]1[C@@H]2[C@@H](O)C[C@@]2(C)[C@H]1CC[C@]2(O)C(=O)CO` [Hydrocortisone, hydrocortisone], which “Avg. Flux” value (formulation EtOH, saturated with the drug except for verapamil, average of the flux values at each sampling time within 24 hours) is on record?
**A.** 0.64 µg/cm^2/h

**Q.** And the “Avg. Flux” value (formulation EtOH:Mig 20:80, saturated with the drug except for verapamil, average within 24 hours)?
**A.** 10.24 µg/cm^2/h

**Q.** What about the “Avg. Flux” value (formulation Mig (Miglyol 840), saturated with the drug except for verapamil, average within 24 hours) of the same molecule?
**A.** 1.49 µg/cm^2/h
